The source made the active and inactive calls. The calls are words filed in the database; no cut-off is given here. Some results are limits rather than exact numbers.

In experiment [1] the target is T1, Carbonic anhydrase 9 (Homo sapiens, UniProt Q16790). Nature of the experiment: Inhibition of human transmembrane carbonic anhydrase 9 after 6 hrs by stopped flow CO2 hydrase assay.
The target of experiment [2] is T1, Carbonic anhydrase 9. Nature of the experiment: Inhibition of human transmembrane carbonic anhydrase 9 up to 50 uM after 6 hrs by stopped flow CO2 hydrase assay.
Experiment [3] addresses T2, Carbonic anhydrase 1 (Homo sapiens, UniProt P00915). As to the kind of experiment: Inhibition of human cytosolic carbonic anhydrase 1 up to 50 uM after 6 hrs by stopped flow CO2 hydrase assay.
Target sequence in this assay (P00915 2-261 limits assumed): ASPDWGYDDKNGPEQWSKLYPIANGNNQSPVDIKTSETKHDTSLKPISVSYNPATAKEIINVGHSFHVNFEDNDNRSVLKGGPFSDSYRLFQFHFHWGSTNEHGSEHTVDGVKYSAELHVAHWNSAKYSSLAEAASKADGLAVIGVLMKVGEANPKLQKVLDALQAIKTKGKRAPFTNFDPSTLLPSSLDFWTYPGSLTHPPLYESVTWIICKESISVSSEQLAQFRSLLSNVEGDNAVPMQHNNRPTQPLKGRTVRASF
The next experiment concerns the target Carbonic anhydrase 12 (Homo sapiens, UniProt O43570). Nature of the experiment: Inhibition of human transmembrane carbonic anhydrase 12 after 6 hrs by stopped flow CO2 hydrase assay.
For experiment [4], the target named is T2, Carbonic anhydrase 1. As to the kind of experiment: Inhibition of human cytosolic carbonic anhydrase 1 after 6 hrs by stopped flow CO2 hydrase assay.
Target sequence in this assay (P00915 whole entry): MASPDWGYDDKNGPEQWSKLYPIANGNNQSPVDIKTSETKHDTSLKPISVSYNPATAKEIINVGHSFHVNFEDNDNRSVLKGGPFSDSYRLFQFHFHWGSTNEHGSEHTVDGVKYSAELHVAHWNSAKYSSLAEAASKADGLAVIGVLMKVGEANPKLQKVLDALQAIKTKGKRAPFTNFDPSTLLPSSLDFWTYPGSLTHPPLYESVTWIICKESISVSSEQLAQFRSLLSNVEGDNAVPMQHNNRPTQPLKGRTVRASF

Chain of Carbonic anhydrase 12 (O43570 whole entry): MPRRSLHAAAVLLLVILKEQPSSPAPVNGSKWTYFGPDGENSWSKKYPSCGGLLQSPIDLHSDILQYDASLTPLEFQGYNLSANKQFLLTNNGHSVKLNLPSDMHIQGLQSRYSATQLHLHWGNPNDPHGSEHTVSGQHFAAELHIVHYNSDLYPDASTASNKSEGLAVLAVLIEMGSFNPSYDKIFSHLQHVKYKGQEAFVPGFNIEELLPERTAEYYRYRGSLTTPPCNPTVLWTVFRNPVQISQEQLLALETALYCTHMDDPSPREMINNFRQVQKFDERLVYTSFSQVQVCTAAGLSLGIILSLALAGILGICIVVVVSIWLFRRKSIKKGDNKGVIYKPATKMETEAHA

As usually defined, the Ki is a measure of affinity in units of concentration, obtained from inhibition or displacement. For the molecule `CS(=O)(=O)Oc1ccc2c(c1)OS(=O)(=O)C=C2`, the inhibition constant (Ki) on Carbonic anhydrase 9 [1], on Carbonic anhydrase 12 and at Carbonic anhydrase 1 [4] was over 10 µM throughout. For the same molecule, the inhibition result on Carbonic anhydrase 9 [2] and at Carbonic anhydrase 1 [3] was “inactive” in each case.

Regarding `CC(=O)Oc1ccc2c(c1)OS(=O)(=O)CC2`, the inhibition constant Ki at Carbonic anhydrase 9 [1], on Carbonic anhydrase 12 and at Carbonic anhydrase 1 [4] was over 10 µM in each case. For the same molecule, the inhibition result on Carbonic anhydrase 9 [2] and on Carbonic anhydrase 1 [3] was “inactive” each time.

As to `O=S1(=O)C=Cc2ccc(OCc3ccccc3)cc2O1`, the inhibition constant (Ki) on Carbonic anhydrase 9 [1], on Carbonic anhydrase 12 and at Carbonic anhydrase 1 [4] was over 10 µM in each case. Further, the inhibition entry on Carbonic anhydrase 9 [2] and at Carbonic anhydrase 1 [3] was “inactive” in each case.

Take `O=C(Cc1ccccc1Br)Oc1ccc2c(c1)OS(=O)(=O)C=C2`: the Ki at Carbonic anhydrase 9 [1], at Carbonic anhydrase 12 and on Carbonic anhydrase 1 [4] was over 10 µM each time. Moreover, the inhibition entry on Carbonic anhydrase 9 [2] and on Carbonic anhydrase 1 [3] was “inactive” each time.

Regarding `COc1ccc2c(c1)OS(=O)(=O)CC2`, the inhibition constant Ki at Carbonic anhydrase 9 [1], at Carbonic anhydrase 12 and on Carbonic anhydrase 1 [4] was over 10 µM each time. Moreover, the inhibition entry on Carbonic anhydrase 9 [2] and on Carbonic anhydrase 1 [3] was “inactive” throughout.

On to `O=C(Cc1ccc(Cl)cc1)Oc1ccc2c(c1)OS(=O)(=O)C=C2`, for which the Ki on Carbonic anhydrase 9 [1], at Carbonic anhydrase 12 and at Carbonic anhydrase 1 [4] was over 10 µM each time. Moreover, the inhibition entry at Carbonic anhydrase 9 [2] and on Carbonic anhydrase 1 [3] was “inactive” in each case.

Consider `O=S1(=O)CCc2ccc(OCc3ccccc3)cc2O1`, for which the Ki on Carbonic anhydrase 9 [1], on Carbonic anhydrase 12 and on Carbonic anhydrase 1 [4] was over 10 µM each time. Also, the inhibition entry on Carbonic anhydrase 9 [2] and on Carbonic anhydrase 1 [3] was “inactive” each time.

`O=S1(=O)CC(O)c2ccc(O)cc2O1` (stereo not given): the Ki on Carbonic anhydrase 9 [1], at Carbonic anhydrase 12 and at Carbonic anhydrase 1 [4] was over 10 µM in each case. Further, the inhibition result at Carbonic anhydrase 9 [2] and on Carbonic anhydrase 1 [3] was “inactive” throughout.

Consider `COc1ccc2c(c1)OS(=O)(=O)C=C2`, for which the inhibitory constant (Ki) on Carbonic anhydrase 9 [1], on Carbonic anhydrase 12 and at Carbonic anhydrase 1 [4] was over 10 µM each time. Besides, the inhibition result on Carbonic anhydrase 9 [2] and at Carbonic anhydrase 1 [3] was “inactive” throughout.

For `O=C(Cc1ccccc1Br)Oc1ccc2c(c1)OS(=O)(=O)CC2`, the inhibitory constant (Ki) on Carbonic anhydrase 9 [1], at Carbonic anhydrase 12 and on Carbonic anhydrase 1 [4] was over 10 µM each time. For the same molecule, the inhibition result at Carbonic anhydrase 9 [2] and at Carbonic anhydrase 1 [3] was “inactive” throughout.

For the molecule `O=C(Cc1ccc(Cl)cc1)Oc1ccc2c(c1)OS(=O)(=O)CC2`, the Ki at Carbonic anhydrase 9 [1], on Carbonic anhydrase 12 and on Carbonic anhydrase 1 [4] was over 10 µM in each case. Besides, the inhibition entry at Carbonic anhydrase 9 [2] and at Carbonic anhydrase 1 [3] was “inactive” in each case.

Turning to `O=S1(=O)C=Cc2ccc(O)cc2O1`, the Ki on Carbonic anhydrase 9 [1], on Carbonic anhydrase 12 and at Carbonic anhydrase 1 [4] was over 10 µM throughout. The inhibition result at Carbonic anhydrase 9 [2] and at Carbonic anhydrase 1 [3] was “inactive” throughout.

`CS(=O)(=O)Oc1ccc2c(c1)OS(=O)(=O)CC2`: the inhibition constant (Ki) on Carbonic anhydrase 9 [1], on Carbonic anhydrase 12 and at Carbonic anhydrase 1 [4] was over 10 µM each time. The inhibition result at Carbonic anhydrase 9 [2] and on Carbonic anhydrase 1 [3] was “inactive” in each case.

Regarding `CC(=O)Oc1ccc2c(c1)OS(=O)(=O)C=C2`, the Ki on Carbonic anhydrase 9 [1], on Carbonic anhydrase 12 and at Carbonic anhydrase 1 [4] was over 10 µM each time. Besides, the inhibition result on Carbonic anhydrase 9 [2] and on Carbonic anhydrase 1 [3] was “inactive” in each case.

Turning to `O=S1(=O)CC(O)c2ccc(OCc3ccccc3)cc2O1` (racemic), the inhibitory constant (Ki) at Carbonic anhydrase 9 [1], at Carbonic anhydrase 12 and on Carbonic anhydrase 1 [4] was over 10 µM in each case. Further, the inhibition result at Carbonic anhydrase 9 [2] and on Carbonic anhydrase 1 [3] was “inactive” each time.

As for `O=S1(=O)CCc2ccc(O)cc2O1`, the Ki on Carbonic anhydrase 9 [1], on Carbonic anhydrase 12 and at Carbonic anhydrase 1 [4] was over 10 µM each time. The inhibition result at Carbonic anhydrase 9 [2] and on Carbonic anhydrase 1 [3] was “inactive” each time.

The values above are taken from ChEMBL document CHEMBL2407052, “7-Substituted-sulfocoumarins are isoform-selective, potent carbonic anhydrase II inhibitors” (Bioorg Med Chem, 2013).
